# Measurements from US12303501B2, “Lipophilic active oral film formulation and method of making the same” (INTELGENX CORP., priority 2018, dated 2025).
# Experiment: viscosity of aqueous glycerol solutions (DV1 Viscometer)
# Assay type: physicochemical
# Details: room temperature (23.5° C.), SC4-21 spindle
# Description: Specifically, larger differences in the viscosity between the oil and the aqueous phases will hinder the emulsion formation and promote phase separation. The formulations disclosed herein thus preferably include viscosity modifying agents to increase the viscosity of the aqueous phase and improve the emulsion stability by diminishing the rise of the oil droplets to the surface. Table 3 contain examples of increasing the viscosity of an aqueous solution using glycerol/glycerine. Viscosity modifiers are added to the aqueous phase to increase the viscosity in and attempt to mitigate the difference in viscosity between the oil phase and the aqueous phases and thus promote emulsion stability.
smiles,measurement,value
"OCC(O)CO [100%, glycerol]",Viscosity,905.0 cP
